Data set [1] concerns visceral pain in the mouse. Description: Analgesic effect, Koster and Anderson test (visceral pain induced by intraperitoneal acetic acid). Type of data set: in vivo. The settings on record: oral, 30 minutes before acetic acid injection, read-out: ED50 (50% effective dose reducing by one half the number of symptoms of pain). As to the method: A visceral pain is induced in the mouse by intraperitonal injection of a dilute solution of acetic acid (Koster and Anderson test).
The animals, which are starved on the day before the experiment, and separated into random batches of five, are treated with the products under test 30 minutes before injection of the irritant. Treatment was always performed orally.
After the acetic solution is injected the animals show symptoms of pain (stretching of the abdomen with extension of the back feet) which are counted during two spells of five minutes for each lot: from the fifth to the tenth minute and from the fifteen to the twentieth minute respectively after the acid is injected.
The ED50 value is expressed in mg per kg bodyweight.
These doses were obtained by oral administration of the products of the invention.

Data set [2] can be described thus: Acute toxicity (LD50). As to conditions: in vivo, mouse. The source says: Moreover, the compounds of the present invention are not, in general, very toxic.
Toxicity, expressed in mg/kg bodyweight, is given below for certain other compounds when administered by the sub-cutaneous route and by the oral route.

Data set [3] concerns central nervous system. Description: Tranquillising effect, exploration test (perforated board). In kind it is in vivo. The settings on record: mouse, oral route. Here is the method:
Exploration test (perforated board): the number of holes explored by an animal (mouse) which has unrestricted movement and is placed on the board for the first time, are recorded.

[4] abbreviates: sc, sub-cutaneous route, read-out: LD50 / toxicity, sub-cutaneous.
The mark [5] stands for this setting: oral route, read-out: LD50 / toxicity, oral.

For nine compounds, ED50 and LD50 results are on record in patent publication US3933853A, “Indole derivatives” (Clin Midy, priority 1972, dated 1976).

Where two headings read alike, the source gives them in different places.

Take `CCN(CC)CCn1cc(CC(C)O)c2ccccc21` (centres unmarked) [compound 5938]: the ED50 (as a rule, the dose at which the effect has come halfway, by size or by number of responders) in data set [1] came out at 1.5 mg/kg.

In the case of `CCN(CC)CCn1cc(CC(C)=O)c2ccccc21` [compound 5477], the results for the LD50 in data set [2] (setting [4]) and in data set [2] (setting [5]) were 200 mg/kg and 400 mg/kg, respectively.

`CC(=O)Cc1cn(CCN(C)C)c2ccccc12` [compound 5353]: the figures for the ED50 in data set [1] and in data set [3] were 1.5 mg/kg and 5 mg/kg, respectively.

In the case of `CC(=O)ON=C(C)Cc1cn(CCN(C)C)c2ccccc12` [compound 5472], the ED50 in data set [1] is 0.75 to 1.5 mg/kg; in data set [3], 5 mg/kg. Also, the LD50 came to 400 mg/kg in data set [2] (setting [4]) and 200 mg/kg in data set [2] (setting [5]).

Consider `CC(Cc1cn(CCN(C)C)c2ccccc12)=NOCCN(C)C` [compound 5444], for which, in data set [1], the ED50 lay in the range of 6.25 to 12.5 mg/kg.

Consider `CC(O)Cc1cn(CCN(C)C)c2ccccc12` (centres unmarked) [compound 5607], for which, in data set [1], the ED50 worked out at 0.75 mg/kg. In addition, the LD50 in data set [2] (setting [4]) was 800 mg/kg; in data set [2] (setting [5]) it was over 800 mg/kg.

With `CCC(=O)ON=C(C)Cc1cn(CCN(C)C)c2ccccc12` [compound 5473], the ED50 in data set [1] fell in the range of 0.75 to 1.5 mg/kg. Further, the LD50 was 200 to 400 mg/kg in data set [2] (setting [4]) and over 400 mg/kg in data set [2] (setting [5]).

As for `COc1ccc(-n2cc(CC(C)O)c3ccccc32)cc1` (centres unmarked) [compound 5992], the 50% effect level in data set [3] (ED50) was put at a dose of 1 mg/kg. The LD50 in data set [2] (setting [4]) and in data set [2] (setting [5]) was over 400 mg/kg each time.

For the compound `CC(Cc1cn(CCN(C)C)c2ccccc12)=NO` [compound 5354], the ED50 in data set [1] was found to be 3 mg/kg.
